Laboratory results taken from patent US20060089340A1, “Novel steroids and steroid mimetics; method for their production; and use thereof” (priority 2003, published 2006).

SMILES: COc1ccc2c(c1)CC[C@@H]1[C@@H]2CC[C@]2(C)[C@@H](O)C[C@@H](O)[C@]12F
- melting point: 188 to 191 °C
